According to patent US20240425501A1, “NOVEL BICYCLIC HETEROARYL DERIVATIVES AS SOS1:KRAS PROTEINPROTEIN INTERACTION INHIBITORS” (SATYARX PHARMA INNOVATIONS PVT LTD, priority 2021, published 2024):

Each compound was assayed against T1, hSOS1 enzyme / KRAS (G12C), GST-Tag, GDP-bound protein (Homo sapiens, UniProt Q07889) (assay: SOS1-mediated KRAS guanine nucleotide exchange (GEF) assay, HTRF ("On Assay")). Conditions: 1 μM compound.
T1 sequence (Q07889 564-1049 limits assumed): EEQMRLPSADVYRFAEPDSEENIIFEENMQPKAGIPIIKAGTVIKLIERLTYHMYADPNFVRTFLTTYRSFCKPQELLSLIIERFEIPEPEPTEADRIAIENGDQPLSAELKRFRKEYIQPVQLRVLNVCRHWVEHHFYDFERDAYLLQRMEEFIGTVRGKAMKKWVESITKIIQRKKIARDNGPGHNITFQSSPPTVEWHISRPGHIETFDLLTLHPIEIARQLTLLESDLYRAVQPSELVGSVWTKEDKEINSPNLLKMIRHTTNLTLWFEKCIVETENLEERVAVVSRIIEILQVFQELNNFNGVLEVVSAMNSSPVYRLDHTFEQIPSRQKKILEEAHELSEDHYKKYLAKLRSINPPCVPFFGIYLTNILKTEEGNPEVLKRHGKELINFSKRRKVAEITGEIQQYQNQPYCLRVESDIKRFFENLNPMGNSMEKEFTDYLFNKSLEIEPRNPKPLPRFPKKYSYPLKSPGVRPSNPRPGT
Type: biochemical
Description: Biochemical Assay: Measurement of SOS1-Mediated KRAS Guanine Nucleotide Exchange (GEF) Assay
This assay quantifies the HTRF-based SOS1 mediated guanine nucleotide exchange assay detecting GTP binding to KRAS (G12C), GST-Tag, GDP-bound protein. This is also referred as “On Assay”.The assay buffer composition is as follows: 10 mM HEPES pH-7, 150 mM NaCl, 5 mM MgCl2, 1 mM DTT, 0.05% BSA, 0.0025% IGEPAL CA-630 and MilliQ water. 0.5 μl of compounds diluted in assay buffer were dispensed into the respective wells of 384 black well test plate. 4.75 μl of KRAS working solution containing 100 nM KRAS (G12C), GST-Tag, GDP-bound protein GDP-loaded (Reaction biology) and 2 nM Anti GST-Tb cryptate (FRET donor, Cisbio) was added in assay buffer. The components were incubated for 10 min at 25° C.
4.75 μl of hSOS1 working solution containing 20 nM hSOS1 enzyme and 200 nM EDA-GTP-DY-647P (FRET acceptor, synthesized by Jena Bioscience (Germany), supplied as a 1 mM solution) was further added in assay buffer. 4.75 μl of inhibitor control having only 200 nM EDA-GTP-DY-647P1 component without hSOS1 working solution was added in the negative control well. The plate was short spun for few seconds and incubated for 10 min. HTRF was measured using Perkin Elmer-Nivo 5F multimode plate reader.
HTRF settings: EXCITATION FILTER—320/75 nm, EMISSION FILTER (1) —615/8 nm, EMISSION FILTER (2)—665/8 nm

`CCN1CCN(c2ccc3nc(Cl)nc(N[C@H](C)c4cc(N)cc(C(F)(F)F)c4)c3c2)CC1` [Example 73, (R)—N-(1-(3-amino-5-(trifluoromethyl)phenyl)ethyl)-2-chloro-6-(4-ethylpiperazin-1-yl)quinazolin-4-amine] and `CCN1CCN(c2cc3c(N[C@H](C)c4cc(N)cc(C(F)(F)F)c4)nc(Cl)nc3cc2C)CC1` [Example 71, (R)—N-(1-(3-amino-5-(trifluoromethyl)phenyl)ethyl)-2-chloro-6-(4-ethylpiperazin-1-yl)-7-methylquinazolin-4-amine] cannot be ordered by inhibition at 1 µM: ≥ 50% for the first, ≥ 50% for the second.

`C[C@@H](Nc1nc(Cl)nc2cnc(C3CCOCC3)cc12)c1cccc(C(F)F)c1F` [Example 64, (R)-2-chloro-N-(1-(3-(difluoromethyl)-2-fluorophenyl)ethyl)-6-(tetrahydro-2H-pyran-4-yl)pyrido[3,4-d]pyrimidin-4-amine] and `COC1CCN(c2cc3c(N[C@H](C)c4cccc(C(F)F)c4F)nc(Cl)nc3cn2)CC1` [Example 60, (R)-2-chloro-N-(1-(3-(difluoromethyl)-2-fluorophenyl)ethyl)-6-(4-methoxypiperidin-1-yl)pyrido[3,4-d]pyrimidin-4-amine] cannot be ordered by inhibition at 1 µM: ≥ 50% for the first, ≥ 50% for the second.

`C[C@@H](Nc1nc(Cl)cc2ncc(N3CCOCC3)cc12)c1cc(N)cc(C(F)(F)F)c1` [Example 89, (R)—N-(1-(3-amino-5-(trifluoromethyl)phenyl)ethyl)-7-chloro-3-morpholino-1,6-naphthyridin-5-amine] and `Cc1nnc(N[C@H](C)c2cc(N)cc(C(F)(F)F)c2)c2cc(N3CCOCC3)cnc12` [Example 87, (R)—N-(1-(3-amino-5-(trifluoromethyl)phenyl)ethyl)-8-methyl-3-morpholinopyrido[2,3-d]pyridazin-5-amine] cannot be ordered by inhibition at 1 µM: ≥ 50% for the first, ≥ 50% for the second.

`COc1nc(N[C@H](C)c2cc(N)cc(C(F)(F)F)c2)c2cc(N3CCC(OC)CC3)ncc2n1` [Example 58, (R)—N-(1-(3-amino-5-(trifluoromethyl)phenyl)ethyl)-2-methoxy-6-(4-methoxypiperidin-1-yl)pyrido[3,4-d]pyrimidin-4-amine] and `COC1CCN(c2cc3c(N[C@H](C)c4cc(N)cc(C(F)(F)F)c4)nc(N(C)C)nc3cn2)CC1` [Example 41, (R)—N4-(1-(3-amino-5-(trifluoromethyl)phenyl)ethyl)-6-(4-methoxypiperidin-1-yl)-N2,N2-dimethylpyrido[3,4-d]pyrimidine-2,4-diamine] cannot be ordered by inhibition at 1 µM: ≥ 50% for the first, ≥ 50% for the second.

`C[C@@H](Nc1nc(N2CCC2)nc2cnc(N3CCCC3)cc12)c1cc(N)cc(C(F)(F)F)c1` [Example 16, (R)—N-(1-(3-amino-5-(trifluoromethyl)phenyl)ethyl)-2-(azetidin-1-yl)-6-(pyrrolidin-1-yl)pyrido[3,4-d]pyrimidin-4-amine] and `CC1CCN(c2cc3c(N[C@H](C)c4cc(N)cc(C(F)(F)F)c4)nc(N4CCC4)nc3cn2)CC1` [Example 47, (R)—N-(1-(3-amino-5-(trifluoromethyl)phenyl)ethyl)-2-(azetidin-1-yl)-6-(4-methylpiperidin-1-yl)pyrido[3,4-d]pyrimidin-4-amine] cannot be ordered by inhibition at 1 µM: ≥ 50% for the first, < 50% for the second.

`COCCOc1nc(N[C@H](C)c2cc(N)cc(C(F)(F)F)c2)c2cc(N3CCCC3)ncc2n1` [Example 4, (R)—N-(1-(3-amino-5-(trifluoromethyl)phenyl)ethyl)-2-(2-methoxyethoxy)-6-(pyrrolidin-1-yl)pyrido[3,4-d]pyrimidin-4-amine] and `COCCNc1nc(N[C@H](C)c2cc(N)cc(C(F)(F)F)c2)c2cc(N3CCCC3)ncc2n1` [Example 14, (R)—N4-(1-(3-amino-5-(trifluoromethyl)phenyl)ethyl)-N2-(2-methoxyethyl)-6-(pyrrolidin-1-yl)pyrido[3,4-d]pyrimidine-2,4-diamine] cannot be ordered by inhibition at 1 µM: ≥ 50% for the first, ≥ 50% for the second.

`CNCCNc1nc(N[C@H](C)c2cc(N)cc(C(F)(F)F)c2)c2cc(N3CCOCC3)ncc2n1` [Example 35, (R)—N4-(1-(3-amino-5-(trifluoromethyl)phenyl)ethyl)-N2-(2-(methylamino)ethyl)-6-morpholinopyrido[3,4-d]pyrimidine-2,4-diamine] and `CNc1nc(N[C@H](C)c2cc(N)cc(C(F)(F)F)c2)c2cc(N3CCOCC3)ccc2n1` [Example 74, (R)—N4-(1-(3-amino-5-(trifluoromethyl)phenyl)ethyl)-N2-methyl-6-morpholinoquinazoline-2,4-diamine] cannot be ordered by inhibition at 1 µM: ≥ 50% for the first, ≥ 50% for the second.

`C[C@@H](Nc1nc(Cl)nc2ncc(N3CCN(C)CC3)cc12)c1cc(N)cc(C(F)(F)F)c1` [Example 82, (R)—N-(1-(3-amino-5-(trifluoromethyl)phenyl)ethyl)-2-chloro-6-(4-methylpiperazin-1-yl)pyrido[2,3-d]pyrimidin-4-amine] and `C[C@@H](Nc1nc(N(C)C)nc2cnc(N3CCN(C)CC3)cc12)c1cc(N)cc(C(F)(F)F)c1` [Example 45, (R)—N4-(1-(3-amino-5-(trifluoromethyl)phenyl)ethyl)-N2,N2-dimethyl-6-(4-methylpiperazin-1-yl)pyrido[3,4-d]pyrimidine-2,4-diamine] cannot be ordered by inhibition at 1 µM: ≥ 50% for the first, ≥ 50% for the second.

`COCCN(C)c1nc(N[C@H](C)c2cc(N)cc(C(F)(F)F)c2)c2cc(N3CCCC3)ncc2n1` [Example 15, (R)—N4-(1-(3-amino-5-(trifluoromethyl)phenyl)ethyl)-N2-(2-methoxyethyl)-N2-methyl-6-(pyrrolidin-1-yl)pyrido[3,4-d]pyrimidine-2,4-diamine] and `C[C@@H](Nc1nc(N(C)CCO)nc2cnc(N3CCCC3)cc12)c1cc(N)cc(C(F)(F)F)c1` [Example 13, (R)-2-((4-((1-(3-amino-5-(trifluoromethyl)phenyl)ethyl)amino)-6-(pyrrolidin-1-yl)pyrido[3,4-d]pyrimidin-2-yl)(methyl)amino)ethan-1-ol] cannot be ordered by inhibition at 1 µM: ≥ 50% for the first, ≥ 50% for the second.

`C[C@@H](Nc1nc(Cl)nc2cnc(N3CCN(C4CC4)CC3)cc12)c1cc(N)cc(C(F)(F)F)c1` [Example 26, (R)—N-(1-(3-amino-5-(trifluoromethyl)phenyl)ethyl)-2-chloro-6-(4-cyclopropylpiperazin-1-yl)pyrido[3,4-d]pyrimidin-4-amine] and `C[C@@H](Nc1nc(Cl)nc2cnc(N3CCN(C4CCC4)CC3)cc12)c1cc(N)cc(C(F)(F)F)c1` [Example 28, (R)—N-(1-(3-amino-5-(trifluoromethyl)phenyl)ethyl)-2-chloro-6-(4-cyclobutylpiperazin-1-yl)pyrido[3,4-d]pyrimidin-4-amine] cannot be ordered by inhibition at 1 µM: ≥ 50% for the first, ≥ 50% for the second.

`C[C@@H](Nc1nc(Cl)nc2cnc(N3CCN(C)CC3)cc12)c1cccc(C(F)F)c1F` [Example 61, (R)-2-chloro-N-(1-(3-(difluoromethyl)-2-fluorophenyl)ethyl)-6-(4-methylpiperazin-1-yl)pyrido[3,4-d]pyrimidin-4-amine] and `CCN1CCN(c2cc3c(N[C@H](C)c4cc(N)cc(C(F)(F)F)c4)nc(N(C)C)nc3cn2)CC1` [Example 49, (R)—N4-(1-(3-amino-5-(trifluoromethyl)phenyl)ethyl)-6-(4-ethylpiperazin-1-yl)-N2,N2-dimethylpyrido[3,4-d]pyrimidine-2,4-diamine] cannot be ordered by inhibition at 1 µM: ≥ 50% for the first, ≥ 50% for the second.

`COC1CCN(c2cc3c(N[C@H](C)c4cc(N)cc(C(F)(F)F)c4)nc(N4CCC4)nc3cn2)CC1` [Example 40, (R)—N-(1-(3-amino-5-(trifluoromethyl)phenyl)ethyl)-2-(azetidin-1-yl)-6-(4-methoxypiperidin-1-yl)pyrido[3,4-d]pyrimidin-4-amine] and `CNc1nc(N[C@H](C)c2cc(N)cc(C(F)(F)F)c2)c2cc(N3CCC(F)(F)CC3)ncc2n1` [Example 32, (R)—N4-(1-(3-amino-5-(trifluoromethyl)phenyl)ethyl)-6-(4,4-difluoropiperidin-1-yl)-N2-methylpyrido[3,4-d]pyrimidine-2,4-diamine] cannot be ordered by inhibition at 1 µM: ≥ 50% for the first, ≥ 50% for the second.

For `CCN1CCN(c2cnc3c(C)nnc(N[C@H](C)c4cc(N)cc(C(F)(F)F)c4)c3c2)CC1` [Example 86, (R)—N-(1-(3-amino-5-(trifluoromethyl)phenyl)ethyl)-3-(4-ethylpiperazin-1-yl)-8-methylpyrido[2,3-d]pyridazin-5-amine], the inhibition at 1 µM was ≥ 50%.
